Assay results from patent US20200155731A1, “DEVICE AND METHOD FOR PROMOTING RAPID STRUT COVERAGE AND VASCULAR ENDOTHELIAL COVERAGE” (priority 2017, published 2020).

What was measured:
human vascular EC = test: EC proliferation in bottles containing human EC, gene silencers vehicle lentivirus and plasmid; assay type: cell-based; conditions: Experiment 2; lentivirus vehicle for siRNA; FIG. 2
Method: (§1) Therefore, Experiment 2 was carried out with the following groups: lentivirus+gene silencer TNFRSF11B-siRNA, lentivirus+gene silencer NCF4-siRNA, full control (no vehicle and no drug), lentivirus+gene silencer SM22a-siRNA+glyceraldehyde 3-phosphate dehydrogenase (GAPDH) (vehicle control 1), lentivirus+gene silencer MYH11-siRNA+GAPDH (vehicle control 2), sirolimus (drug control 1), and paclitaxel (drug control 2).
(§2) TNFRSF11B-siRNA and NCF4-siRNA are gene silencers of the TNFRSF11B and NCF4 genes, respectively. The delivery system of gene silencers was developed by inserting the respective gene silencers in a plasmid which is carried by a lentivirus. Lentivirus particles are intracellular transduction-ready viruses containing plasmids with gene silencers. After transduction, cells express permanently gene silencers. The density of cell cultures 24 hours before transfection was 2×10^5 cells/10 cm2 in culture medium. […]
(§3) Two control groups containing a lentivirus and a gene silencer of smooth muscle protein 22α (SM22α) or smooth muscle myosin heavy chain (MYH11) were used to assess the vehicle. […] Thus, said two gene silencers, SM22α-siRNA and MYH11-siRNA, were marked with glyceraldehyde 3-phosphate dehydrogenase (GAPDH), called bioconjugates, to ensure by means of fluorescence microscopy that the gene silencers effectively entered VSMC and EC. […]

human VSMC [1] = test: VSMC proliferation in bottles containing human VSMC, vehicle nanoparticles (DSPE-PEG); assay type: cell-based
From the text: […], 2 distearoyl-sn-glycero-3-phosphoethanolamine-Nmethxy (polyethyleneglycol)-2000 (DSPE-PEG) as a drug and gene silencer carrying vehicle instead of lentiviruses and plasmids which were used in the previous experiments. That being so, 8 groups were included for both assessment of nanoparticles as a vehicle and final confirmation of the previous results: control (nanoparticles only), MYH11-siRNA in nanoparticles, CNN1-siRNA in nanoparticles, sirolimus in nanoparticles, paclitaxel in nanoparticles, TNFRSF11B-siRNA in nanoparticles, NCF4-siRNA in nanoparticles, and MYL9-siRNA+GAPDH in nanoparticles.
(§4) The groups of sirolimus in nanoparticles and paclitaxel in nanoparticles were included to compare the efficacy in inhibiting VSMC proliferation. The groups of NFRSF11B-siRNA in nanoparticles and NCF4-siRNA in nanoparticles were tested again with a different vehicle for final confirmation of the negative results. The group of MYL9-siRNA+GAPDH in nanoparticles was studied to evaluate the vehicle efficacy, that is, to ensure that gene silencers would enter VSMC and EC using nanoparticles as a vehicle. […] MYL9-siRNA gene silencer was marked with GAPDH for later verification of its transfection into the cells through fluorescence microscopy. Finally, pure nanoparticles were used as a vehicle control, that is, with neither drug nor gene silencer. […]

human VSMC [2] = test: VSMC proliferation in bottles containing human VSMC, gene silencers vehicle lentivirus and plasmid; assay type: cell-based; conditions: Experiment 2; lentivirus vehicle for siRNA; FIG. 1
Method: as §1, §2, §3

human EC = test: EC proliferation in bottles containing human EC, vehicle nanoparticles (DSPE-PEG); assay type: cell-based; conditions: Experiment 5, control nanoparticles only, FIG. 7
Method: Experiment 5 was carried out by using nanoparticles of 1, 2 distearoyl-sn-glycero-3-phosphoethanolamine-Nmethxy (polyethyleneglycol)-2000 (DSPE-PEG) as a drug and gene silencer carrying vehicle instead of lentiviruses and plasmids which were used in the previous experiments. That being so, 8 groups were included for both assessment of nanoparticles as a vehicle and final confirmation of the previous results: control (nanoparticles only), MYH11-siRNA in nanoparticles, CNN1-siRNA in nanoparticles, sirolimus in nanoparticles, paclitaxel in nanoparticles, TNFRSF11B-siRNA in nanoparticles, NCF4-siRNA in nanoparticles, and MYL9-siRNA+GAPDH in nanoparticles.
as §4, with “microscopy.” for “microscopy. Finally, pure nanoparticles were used as a vehicle control, that is, with neither drug nor gene silencer.”

swine coronary arteries = test: In vivo study in swine: stent deployment in the coronary arteries, intravascular ultrasound follow-up; design: species or system Large White swine
From the text: Experiment 6 was an in vivo study in swine comparing MYH11-siRNA-eluting stent and CNN1-siRNA-eluting stent with bare metal stent and sirolimus-eluting stent.
Eighteen commercially available bare metal stents 2.75×15 mm were covered with MYH11-siRNA in nanoparticles (9 stents) or CNN1-siRNA in nanoparticles (9 stents) using a spray nozzle machine to create an abluminal cover in order to deliver the gene silencers locally in the inner surface of the vessel.
The hybrid lipid-polymer nanoparticles loaded with gene silencers (siRNA) were prepared by the nanoprecipitation method. The aqueous phase consisted of the gene silencer solubilized in 10 mL of water Milli Q under stirring and at a bath temperature of 30° C. The organic phase containing a lipid-cationic compound DSPE-PEG-NH2 (1,2-distearoyl-sn-glycero-3-phosphoethanolamine-N-[amino(polyethyleneglycol)-2000] and the PLGA polymer was then injected into the aqueous phase using a 20 G needle, the suspension being kept under moderate stirring for 5 minutes and then concentrated to a final volume of 10 mL in a rotatory evaporator to eliminate the organic solvent and adjust the final concentration. MYH11-siRNA and CNN1-siRNA concentrations ranging from 10 μg/ml to 100 μg/ml were tested.
After covering the abluminal surface of the 18 stents with MYH11-siRNA in nanoparticles (9 stents) or CNN1-siRNA in nanoparticles (9 stents), the stents were left to dry during 60 minutes, packaged in DuPont Tyvek™ and then sterilized with ethylene oxide (EtO) at 50 C.
Nine Large White swine were submitted to stent deployment in the coronary arteries, 1 stent being deployed in the left anterior descendent (LAD), 2 stents in the circumflex (CX) and 1 stent in the right coronary artery (RCA). The stents were deployed in a diameter ratio of 1.1 in relation to the coronary artery diameter, that is, with a mild oversize, in order to stimulate a similar inflammatory reaction that causes in-stent restenosis, to evaluate the efficacy of the gene silencers in controlling in-stent neointimal hyperplasia in a in vivo model. This oversized stent deployment protocol was previously validated (Lowe H C, Schwartz R S, Mac Neill B D, Jang I K, Hayase M, Rogers C, et al. The porcine coronary model of in-stent restenosis: Current status in the era of drug-eluting stents. Catheter Cardiovasclnterv. 2003:60:515-23.)
The prolonged time of stent re-endothelialization is the critical point of the current commercially available drug-eluting stents. So sirolimus and analogues as paclitaxel decrease the proliferation of vascular smooth muscle cells preventing in-stent neointimal hyperplasia, as well as suppress the proliferation of endothelial cells prolonging the time of stent re-endothelialization. […] Therefore, in order to evaluate the time of stent re-endothelialization, angiographic and intravascular ultrasound follow-up were scheduled at 30, 90 and 180 days after stent deployment.
The intravascular ultrasound analysis was performed tracing 31 frames for each stent with 0.5 mm apart each frame from the distal stent border to the proximal stent border. The data were analysed using one-way ANOVA with Bonferroni post hoc test.
The data of intravascular ultrasound in the index procedure as well as the results regarding in-stent neointimal proliferation at 30, 90 and 180 days after stent deployment are shown in table 1, while the comparative data of intravascular ultrasound regarding stent re-endothelialization at 30, 90 and 180 days after stent deployment are shown in table 2.

[3] = 180 days after stent deployment
[4] = intravascular ultrasound, follow-up (time not specified)

SMILES | EC cell proliferation in relation to the full control group (human vascular EC) | inhibition of VSMC proliferation in comparison with the control (human VSMC [1]; Experiment 5, control nanoparticles only, FIG. 6) | VSMC cell proliferation as compared to the full control group (human VSMC [2]) | EC proliferation compared to the control group (human EC) | human VSMC proliferation (human VSMC [1]; Experiment 7, FIG. 8) [%] | Obstruction: average of percentual obstruction in the whole stent length (swine coronary arteries; 30 days after stent deployment) [%] | re-endothelialization (stent struts coverage) from intravascular ultrasound (swine coronary arteries; 30 days after stent deployment) [%] | Obstruction: average of percentual obstruction in the whole stent length (swine coronary arteries; 90 days after stent deployment) [%] | re-endothelialization (stent struts coverage) from intravascular ultrasound (swine coronary arteries; 90 days after stent deployment) [%] | Obstruction: average of percentual obstruction in the whole stent length (swine coronary arteries; [3]) [% b] | re-endothelialization (stent struts coverage) from intravascular ultrasound (swine coronary arteries; [3]) [%] | LLL: late lumen loss (swine coronary arteries; intravascular ultrasound, follow-up) [mm] | MLA (minimal luminal area) follow-up (swine coronary arteries; [4]) [mm^2 b] | MLD (minimal luminal diameter) follow-up (swine coronary arteries; [4]) [mm]
CC(=O)O[C@H]1C(=O)[C@@]2(C)[C@H]([C@H](OC(=O)c3ccccc3)[C@]3(O)C[C@H](OC(=O)[C@H](O)[C@@H](NC(=O)c4ccccc4)c4ccccc4)C(C)=C1C3(C)C)[C@]1(OC(C)=O)CO[C@@H]1C[C@@H]2O [paclitaxel] | statistically significant inhibition | significant inhibition | statistically significant inhibition | statistically significant inhibition | – | – | – | – | – | – | – | – | – | –
CO[C@H]1C[C@@H]2CC[C@@H](C)[C@@](O)(O2)C(=O)C(=O)N2CCCC[C@H]2C(=O)O[C@H]([C@H](C)C[C@@H]2CC[C@@H](O)[C@H](OC)C2)CC(=O)[C@H](C)/C=C(\C)[C@@H](O)[C@@H](OC)C(=O)[C@H](C)C[C@H](C)/C=C/C=C/C=C/1C [sirolimus] | – | – | – | – | 19 | 11.4 ± 2.2 | 48 ± 3.3 | 12.3 ± 2.1 | 89 ± 3.8 | 13.8 ± 2.4 | 100 | 0.33 ± 0.12 | 6.21 ± 0.16 | 2.68 ± 0.13
